Like-named read-outs stand apart in the source and are kept apart here.
Assays:
[1] = system: Kb-V1 cells (overexpressing PgP); test: MTT cytotoxicity assay, Kb-V1; settings: for IC50: Homo sapiens, KB-V1, 48 h, read-out: Cytotoxicity IC50 Kb-V1; for R/S (resistant to sensitive ratio): IC50 Kb-V1 / IC50 Kb-3.1
Protocol: (§4) Antiproliferative assays were performed as described. […] Then, increasing concentrations of drugs were added and incubated for 48 h prior to the reaction with the MTT solution. IC50 values were obtained by fitting the experimental data (absorbance at 570/690 nm) to a four-parameter logistic curve using SigmaPlot 14.5 software package (Systat Software, Inc., San Jose, CA, USA) and IC50 values were expressed as mean ± SEM from three independent experiments, each performed in duplicate.

[2] = system: Kb-3.1 cells (HeLa subclone); test: MTT cytotoxicity assay, Kb-3.1; assay type: cell-based; settings: Homo sapiens, read-out: Cytotoxicity IC50 Kb-3.1
Protocol: Antiproliferative assays were performed as described.

[3] = system: kinesin-1 light chain KLC1 (anterograde transport) in SH-SY5Y cells; test: Cy5-KBP kinesin binding probe tracking, live-cell imaging; assay type: cell-based, human; settings: for Cy5-KBP Distance, normalized to control / Cy5-KBP Speed, normalized to control: 1 μM PTX or 2.5 μM FTX2, 1a or 1b, mean ± SEM
Description: (§1) Building on our ability to chemically modulate MT structure, we next explored how these changes influence signaling patterns involved in MAPs interactions. Given that MTs are key players in intracellular transport – guiding organelles, vesicles and chromosomes via molecular motors like dyneins and kinesins – we assessed the impact of our compounds on transport dynamics in neuroblastoma SH-SY5Y cells. We combined live-cell imaging with previously developed tracking peptides (Figure A): Cy5-DBP, which encompasses the sequence that specifically recognizes Dynein Light Chain LC8 (retrograde transport), and Cy5-KBP, with a sequence that binds to the tetratricopeptide repeat of the kinesin-1 light chain KLC1 (anterograde transport). […] However, this was for a short incubation period (1 to 2.5 h, including imaging time) to avoid mitotic arrest or compromise cell viability. We then assessed particle behavior by measuring mean track displacement and mean track velocity.
(§2) Cy5-KBP and Cy5-DBP tracking peptides were synthesized at CIB-Margarita Salas (CSIC), following a published protocol. Briefly, the peptide chains were assembled via solid phase peptide synthesis (SPPS) using fluorenylmethyloxycarbonyl (Fmoc) as N-terminal protecting group and, subsequently labeled with the organic dye cyanine 5 (Cy5) via a maleimide–thiol reaction between the N-terminal cysteine residues of the peptides and the commercially available Cy5-maleimide. The final peptides were purified via reverse phase HPLC, dissolved in DMSO to a final 2.5 mM concentration and stored in small aliquots at −20 °C. SH-SY5Y cells were seeded into μ-Slide 8-wells ibiTreat plates (ibidi, flat polymer coverslip-bottom, tissue culture treated) at a concentration of 35,000 cells/well and incubated for 48 h at 37 °C and 5% CO2. […] After this time, the culture medium was replaced by the drug working solution containing either Cy5-KBP or Cy5-DBP, and the plate was incubated for an additional 15 min at 37 °C and 5% CO2. Then, the culture medium was replaced with drug working solution without labeled peptide and the cells were imaged using a confocal laser scanning microscope Leica TCS SP8 with a 63x oil immersion objective that included a humidified incubation chamber, a CO2 controller and a heating unit. Cy5 dye was excited at 635 nm and the fluorescence emission was collected at 645–690 nm. Images were recorded every 1.793 s for 3 min as 2-layer-z-stacks. For each condition, two to three different fields were imaged in two separate experiments.
(§3) Single-peptide trajectories were tracked with the TrackMate plugin from the Fiji package software (https://imagej.net/TrackMate). Particles with an estimated blob diameter of 1–1.5 μm were detected using the Laplacian of Gaussian (LoG) detector and linked with the Linear motion LAP tracker. Only spots that were at a maximum distance of 2 μm were linked. Trajectories with less than 6 spots were discarded since they were probably artifactual, and track mean displacement and track mean velocity were calculated and normalized to control cells. Data were further analyzed with MATLAB to perform a Mean Square Displacement (MSD) analysis to determine the mode of displacement of the peptides followed over time. Briefly, for each trajectory the MSD function was calculated and its log–log representation fitted with a linear function (log(MSD(τ)) = […] x log(τ) + C). MSD curves with an R^2 coefficient <0.8 were removed. The slope (α) of each MSD curve determines the motion type of each particle and particles were classified into: constrained particles (CM) α < 1, Brownian particles (BM) α = 1, and transported particles (TM) α > 1. Two independent experiments were performed using three biological replicates (N = 6). Statistical analyses of normalized track mean displacement and track mean velocity were performed using an unpaired t test with Welch’s correction in GraphPad Prism 8 software. […]

[4] = system: HeLaβIII cells (overexpressing βIII tubulin isotype); test: MTT cytotoxicity assay, HeLaβIII; settings: for IC50: Homo sapiens, 48 h, read-out: Cytotoxicity IC50 HeLaβIII; for R/S (resistant to sensitive ratio): IC50 HeLaβIII / IC50 HeLa
Protocol: as §4

tubulin = test: Tubulin polymerization time course (absorbance 350 nm); assay type: biochemical, calf; settings: 25 μM tubulin in PEDTA buffer, 35 μM compound, 37 °C
Protocol: Purified calf brain tubulin and chemicals were obtained as previously described. Tau-mCherry was expressed and purified as described previously. Human Kif5B-EGFP (amino acids 1-905), containing a C terminal fluorescent-tag followed by a 3C protease cleavage site and a 6 × His-tag was expressed and purified as in with some modifications. Prior to purification, cells were resuspended in 1:1 ratio of lysis buffer (30 mM HEPES pH 7.5, 300 mM NaCl, 0.5 mM ATP, 5% glycerol, 20 mM imidazole, […]) supplemented with 1× Protease inhibitor cocktail and benzonase to the final concentration of 25 units/ml. Cells were homogenized by repeated pipetting. Cells were lysed by spinning for 45 min at 40,000 rpm in 45 Ti fixed-angle rotor (Beckman Coulter) at 4 °C. The supernatant was incubated with pre-equilibrated HisPUR NiNTA agarose resin (Thermo Fisher Scientific) for 1 h in a tightly closed gravity-flow column (Thermo Fisher Scientific) at 4 °C by slowly rotating. Subsequently, the resin was washed once lysis buffer and then with buffer B (30 mM HEPES pH 7.5, 300 mM NaCl, 0.5 mM ATP, 5% glycerol, 30 mM imidazole, […]). The protein was eluted from the resin after an overnight cleavage of the 6 × His-tag with 3C HRV protease in lysis buffer at 4 °C. The eluted protein was further purified via size exclusion chromatography on Superdex 200 10/300 GL column equilibrated in exclusion buffer (30 mM HEPES pH 7.5, 300 mM NaCl, 0.5 mM ATP, 5% glycerol, […]). Peak fractions were analyzed via SDS-PAGE, pooled and the protein was concentrated with Amicon Ultra-15 Centrifugal Filter tubes (Millipore). Purified proteins were aliquoted, snap-frozen in liquid N2, and stored at −80 °C.
Tubulin polymerization assays were performed in PEDTA (10 mM NaPi, 1 mM EDTA, 0.1 mM GTP pH 7.0) or GAB (10 mM NaPi, 3.4 M glycerol, 1 mM EGTA, 0.1 mM GTP pH 6.7) buffers supplemented with 0.9 mM GTP and 4 mM MgCl2.

[5] = system: Dynein Light Chain LC8 (retrograde transport) in SH-SY5Y cells; test: Cy5-DBP dynein binding probe tracking, live-cell imaging; assay type: cell-based, human; settings: for Cy5-DBP Distance, normalized to control / Cy5-DBP Speed, normalized to control: 1 μM PTX or 2.5 μM FTX2, 1a or 1b, mean ± SEM
Description: as §1, §2, §3

| Compound | IC50 [1] [µM] | R/S (resistant to sensitive ratio) [1] | IC50 ([2]; KB 3-1, 48 h) [nM] | Cy5-KBP Distance, normalized to control [3] | Cy5-KBP Speed, normalized to control [3] | effect on Cy5-KBP particle tracking ([3]; 2.5 μM) | IC50 [4] [nM] | R/S (resistant to sensitive ratio) [4] | Polymerization v max (tubulin) | Cy5-DBP Distance, normalized to control [5] | Cy5-DBP Speed, normalized to control [5] | IC50 ([2]; KB 3-1, MTT, 48 h, mean ± SEM) [nM] | reduction in kinesin binding probe velocity ([3]; 2.5 μM) [%] | reduction of Cy5-DBP particle displacement vs nontreated control cells ([5]; 1 μM PTX) |
| --- | --- | --- | --- | --- | --- | --- | --- | --- | --- | --- | --- | --- | --- | --- |
| CC(=O)OC1C(=O)C2(C)C(OC(=O)CCCCC(=O)OC3CCc4ccccc43)CC3OCC3(OC(C)=O)C2C(OC(=O)c2ccccc2)C2(O)CC(OC(=O)C(O)C(NC(=O)c3ccccc3)c3ccccc3)C(C)=C1C2(C)C (stereo not drawn) [1a, 7-O-(6″-O-(2‴,3‴-Dihydroinden-1‴-yl)hexanedioyl) Paclitaxel] | > 40 | >142 | 280 ± 30 | 0.92 ± 0.01 ratio to control | 0.95 ± 0.01 ratio to control | did not affect particle tracking | 510 ± 80 | 3 | 1.19 × 10^–3 min^–1 | 0.92 ± 0.01 | 0.98 ± 0.02 |  |  |  |
| COc1ccc2c(c1)CC(NC(=O)CCCCCCCC(=O)OC1CC3OCC3(OC(C)=O)C3C(OC(=O)c4ccccc4)C4(O)CC(OC(=O)C(O)C(NC(=O)c5ccccc5)c5ccccc5)C(C)=C(C(OC(C)=O)C(=O)C13C)C4(C)C)CC2 [1b, 7-O-((S)-9″-(7‴-Methoxy-1‴,2‴,3‴,4‴-tetrahydronaphthalen-2‴-yl)amino) −9″-oxononanoyl) Paclitaxel] | 19 | 127 |  | 0.85 ± 0.01 ratio to control | 0.87 ± 0.01 ratio to control |  | 720 ± 80 | 7 | 1.44 × 10^–4 min^–1 | 0.92 ± 0.01 | 1.07 ± 0.01 | 150 ± 20 | ~16 |  |
| CC(=O)O[C@H]1C(=O)[C@]2(C)[C@@H](OC(=O)[C@H](C)NC(=O)c3ccc(-c4c5cc(F)c(=O)cc-5oc5cc(O)c(F)cc45)c(C(=O)O)c3)C[C@H]3OC[C@@]3(OC(C)=O)[C@H]2[C@H](OC(=O)c2ccccc2)[C@]2(O)C[C@H](OC(=O)[C@H](O)[C@@H](NC(=O)c3ccccc3)c3ccccc3)C(C)=C1C2(C)C [FTX2, Flutax2] |  |  |  | 0.910 ± 0.003 ratio to control | 0.85 ± 0.01 ratio to control |  |  |  | 1.42 × 10^–3 min^–1 | 1.06 ± 0.02 | 1.21 ± 0.02 |  | ~14 |  |
| CC(=O)O[C@H]1C(=O)[C@@]2(C)[C@H]([C@H](OC(=O)c3ccccc3)[C@]3(O)C[C@H](OC(=O)[C@H](O)[C@@H](NC(=O)c4ccccc4)c4ccccc4)C(C)=C1C3(C)C)[C@]1(OC(C)=O)CO[C@@H]1C[C@@H]2O [PTX, Paclitaxel] | 2.7 ± 0.6 |  |  |  |  |  | 28.7 ± 0.7 |  | 1.25 × 10^–2 min^–1 |  |  | 2.4 ± 0.2 |  | approximately 20% |

Source: article PMC13492380, “Dissecting Structural and Functional Determinants of Microtubules Stabilization through Guided Chemical Modulation” (Journal of Medicinal Chemistry, 2026)
